Article PMC9452909, “Monomethylsulochrin isolated from biomass extract of Aspergillus sp. against Leishmania amazonensis: In vitro biological evaluation and molecular docking” (Frontiers in Cellular and Infection Microbiology, 2022)
In brackets after ≈: the same amount, converted by molar mass. Like-named read-outs stand apart in the source and are kept apart here.

What was measured:
[1] = Cytotoxicity assay (MTT); format: cell-based; details: mouse
Description: The animals were stimulated by intraperitoneal inoculation of 3.0 ml of sodium thioglycolate at 3.0%. After 72 h of elicitation, the animals were euthanized with 10% ketamine (Syntec, São Paulo, BRA) and 2% xylazine (Syntec, São Paulo, BRA) according to the weight of each animal and, after death, the animal’s skin was retracted by incision and subsequent divulsion for peritoneum exposure. A total of 10.0 ml of sterile pH 7.2 phosphate-buffered saline (PBS) was inoculated, and a light manual massage was performed. The cells were then harvested from the peritoneum and dispensed in a sterile conical tube. The peritoneal lavage was centrifuged at 380g for 5 min, and cells were suspended in culture medium (RPMI 1640 medium supplemented with 10% FBS, penicillin [100 U/ml], and [100 μg/ml] streptomycin) and incubated at 37°C, 5% CO2 overnight ([Almeida-Souza et al., 2018]).
Wells without cells were used as blank, and wells with cells and 1% DMSO were used as control. After 24-h incubation period, cell viability was assessed by MTT. The cytotoxicity of 50% (CC50) was calculated following the method described elsewhere by [Oliveira et al. (2018)]. The selectivity index (SI) was obtained from the ratio of peritoneal macrophages CC50 and IC50.

[2] = test system: L. amazonensis promastigote; test: Antileishmanial activity assay, promastigote forms (live parasite counting); format: cell-based, Leishmania amazonensis; details: 24 h; for IC50: Leishmania amazonensis, mean ± SD
Description: Promastigote forms of L. amazonensis H21 (MHOM/BR/76/MA-76) were cultured at 26°C in Schneider’s insect medium. The culture was supplemented with 10% FBS, 100 IU/ml of penicillin, and 100 µg/ml of streptomycin in a maximum of 10 in vitro passages ([Almeida-Souza et al., 2016]).
In 96-well plates, the promastigote forms of L. amazonensis (10^6 parasites/ml) from a 3- to 5-day-old culture were incubated for 24 h in the presence of different concentrations of pseurotin A at 7.24–579.5 μM and monomethylsulochrin at 9.0–721.9 μM, in a final volume of 100 µL per well. The viability of parasites was evaluated after treatment by counting the total number of live promastigotes, considering the flagellar motility, using Neubauer’s camera and optical light microscope ([Rottini et al., 2019]). This count was compared with the score of non-treated promastigote growth. This experiment was carried out in independent triplicate with each condition performed in triplicate. The results were expressed as parasite growth inhibitory concentration of 50% (IC50). Wells with medium and without parasites were used as blanks, and wells with parasites only incubated with medium were used as controls. […] Activity against intracellular amastigote was performed in 24-well plates, with coverslips, with peritoneal macrophages cultured (5 × 10^5 cells per well) and infected with promastigote forms of L. amazonensis using a ratio of 10:1 parasites per cell. After 6 h, the cells were washed three times with PBS to remove free parasites. […] For the light microscopy analysis, the coverslips with the infected and treated cells were then fixed with Bouin solution and stained with Giemsa. The IC50 values of all compounds tested were calculated from the total of intracellular amastigote from 100 cells. Parameters of infection analysis were performed according to [Silva-Silva et al. (2021a)].

[3] = test system: fungi; design: method as in Zhang et al., 2014; details: ref Zhang et al., 2014; cited from earlier work
[4] = test system: L. amazonensis promastigote forms; test: Flow cytometry with TMRE, mitochondrial membrane potential; format: cell-based, Leishmania amazonensis; details: 24 h, p = 0.0286
Description: Heat-killed parasites (60°C bath for 60 min) and untreated parasites were used as positive and negative controls, respectively. After incubation, parasites were centrifuged at 210g for 5 min at room temperature, washed in PBS, incubated with 300 μl of TMRE (50 nM) in the dark for 15 min, at room temperature, and submitted to flow cytometry through CytoFlex flow cytometer (Beckman Coulter Life Sciences, IN, USA). TMRE was excited by 488-nm blue laser, and its fluorescence was collected at 585/42 nm bandpass filter. CytExpert software version 2.1 (Beckman Coulter Life Sciences, IN, USA) was used for flow cytometry analyses ([Mondêgo-Oliveira et al., 2021]).

[5] = test system: L. amazonensis intracellular amastigote; test: Activity against intracellular amastigote in infected peritoneal macrophages; format: cell-based, Leishmania amazonensis; details: 24 h; for IC50: Leishmania amazonensis, Peritoneal macrophage, in Mus musculus, read-out: L. amazonensis Intracellular amastigote IC50
Description: The viability of parasites was evaluated after treatment by counting the total number of live promastigotes, considering the flagellar motility, using Neubauer’s camera and optical light microscope ([Rottini et al., 2019]). This count was compared with the score of non-treated promastigote growth. This experiment was carried out in independent triplicate with each condition performed in triplicate. […] Wells with medium and without parasites were used as blanks, and wells with parasites only incubated with medium were used as controls. […] After 6 h, the cells were washed three times with PBS to remove free parasites. […] For the light microscopy analysis, the coverslips with the infected and treated cells were then fixed with Bouin solution and stained with Giemsa. […] Parameters of infection analysis were performed according to [Silva-Silva et al. (2021a)].

[6] = test system: bacteria; design: method as in Zhang et al., 2014; details: ref Zhang et al., 2014; cited from earlier work
[7] = test system: L. amazonensis promastigote forms; test: Transmission electron microscopy, ultrastructural alterations; format: cell-based, Leishmania amazonensis; details: 18.04 µM (IC50), 24 h; p = 0.0016, 0.0016, 0.0480, 0.0079
Description: The transmission electron microscopy was performed to evaluate if monomethylsulochrin induced any ultrastructural alterations to the L. amazonensis promastigote forms. Parasites were treated with monomethylsulochrin with IC50 for 24 h and fixed with 2.5% glutaraldehyde in sodium cacodylate buff;er (0.1 M, pH 7.2) for overnight, then washed three times with 0.1 M sodium cacodylate buffer and postfixed in a solution containing 1% osmium tetroxide, 0.8% ferrocyanide, and 5 mM calcium chloride. 0.1 M sodium cacodylate buffer was used for washing, before being dehydrated in graded acetone and embedded in EPON 812 resin. Ultrathin sections were stained with 5% uranyl acetate aqueous solution and lead citrate (1.33% lead nitrate and 1.76% sodium citrate) and examined in a JEM-1011 transmission electron microscope (JEOL, Tokyo, Japan) at 80 kV ([Silva-Silva et al., 2021b]). The images acquired were used for quantification of the number of vacuoles and lipid corpuscles and area of vacuoles, lipid corpuscles, and mitochondria, using ImageJ software (NIH). Quantitative analysis was conducted with five untreated parasites and at least 10 treated parasites. The number of vacuoles and lipid corpuscles was expressed as mean ± standard deviation (SD), and the area of vacuoles, lipid corpuscles, and mitochondria were expressed as percentage of each parasite total area.

[8] = test system: L. infantum promastigote forms; design: method as in Hay et al. (2008); details: ref Hay et al. (2008); cited from earlier work
[9] = test system: L. infantum intracellular amastigote forms; design: method as in Hay et al. (2008); details: ref Hay et al. (2008); cited from earlier work
[10] = test system: L. mexicana promastigote forms; design: method as in Hay et al. (2008); details: ref Hay et al. (2008); cited from earlier work
[11] = test system: Leishmania; design: method as in Campos et al., 2017; details: ref Campos et al., 2017, cited from earlier work
[12] = test system: L. donovani amastigotes, axenically cultured (cell free); design: method as in Martińez-Luis et al. (2012); details: isolated from endophytic Aspergillus sp. strain F1544; ref Martińez-Luis et al. (2012); cited from earlier work
[13] = peritoneal macrophages (thioglycolate-elicited), BALB/c peritoneal macrophages, 24 h, MTT, mean ± SD, read-out: Cytotoxicity CC50

COC(=O)c1cc(O)cc(OC)c1C(=O)c1c(O)cc(C)cc1OC [Monomethylsulochrin, monomethylsulochrin]
CC50 at 24 h [1, 13]: 91.6 ± 1.28 µM | SIpro (selectivity index = CC50 macrophages/IC50 promastigote forms) [2]: 5.08 | IC50 [2]: 18 ± 1.11 µM | Antifungal activity [3]: no antifungal activity | Change in Δψm ([4]; 18.04 µM): significant decrease | Decrease in the mitochondrial membrane potential ([4]; IC50 concentration): 25.9% | Parameters of infection (amastigote number in 100 cells, percentage of infected cells, mean of amastigotes per infected cell) ([5]; 6 µM, p = 0.0082, 0.0033, 0.0041): statistically significant reduction | SIama (selectivity index = CC50 macrophages/IC50 amastigote forms) [5]: 18.00 | IC50 ([5]; infected BALB/c peritoneal macrophages, mean ± SD): 5.09 ± 1.06 µM | Antibacterial activity [6]: weak antibacterial activity | Ultrastructural changes: number of vacuoles, vacuoles area, lipid corpuscles area, mitochondria area [7]: statistically significant changes

CC(C)=CCC/C(C)=C/Cc1c(O)cc(O)c(C(=O)c2ccccc2)c1O [3-geranyl-2,4,6-trihydroxybenzophenone]
IC50 against promastigote forms of L. infantum [8]: 15 µg/mL | IC50 against intracellular amastigote forms of L. infantum [9]: 0.7 µg/mL | IC50 against promastigote forms of L. mexicana [10]: 4.05 µg/mL

C[C@@H]1[C@H](O)[C@@H](C)/C=C/C=C/C=C/C=C/C=C/C=C/C=C/[C@H](O[C@@H]2O[C@H](C)[C@@H](O)[C@H](N)[C@@H]2O)C[C@@H]2O[C@](O)(C[C@@H](O)C[C@@H](O)[C@H](O)CC[C@@H](O)C[C@@H](O)CC(=O)O[C@H]1C)C[C@H](O)[C@H]2C(=O)O [Amphotericin B, amphotericin B, reference compound]
CC50 at 24 h ([1]; BALB/c): 8.45 ± 1.08 µM | SIpro (selectivity index = CC50 macrophages/IC50 promastigote forms) [2]: 312.96 | Infection parameters (all) ([5]; 3 µM): significant reduction | SIama (selectivity index = CC50 macrophages/IC50 amastigote forms) [5]: 13.43 | IC50 [5]: 0.629 ± 1.39 µM

anhydrocochlioquinone A [anhydrocochlioquinone A (ANDC-A)]
Leishmanicidal activity EC50 [11]: 22.4 µg/mL | EC50 ([11]; read-out: Leishmanicidal activity EC50): 44 µM

CC/C=C\[C@H](O)[C@H](O)C1=C(C)C(=O)[C@]2(O1)C(=O)N[C@@](OC)(C(=O)c1ccccc1)[C@@H]2O [Pseurotin A, pseurotin A]
CC50 at 24 h [1, 13]: 654.4 ± 1.19 µM | IC50 [2]: > 500 µM | IC50 against axenically cultured (cell free) L. donovani amastigotes [12]: 5.8 µg/mL (≈ 13.4 µM)
